# Results published in patent publication US20190002436A1, “RESPIRATORY SYNCYTIAL VIRUS INHIBITORS” (MEDIVIR AB, priority 2015, published 2019).
# Tested on: RSV (Long)
# Assay: RSV cytopathic effect (CPE)-based viral replication assay
# Type: cell-based, respiratory syncytial virus (RSV)
# Conditions: HEp-2 cells infected with RSV Long at MOI 0.015; 3 days at 37° C.; cell viability by CellTiter-Glo luminescence; read-out: EC50 (nm)
# Method: Example A: RSV Cytopathic Effect
# Compounds of the invention are initially tested in a cytopathic effect (CPE)-based viral replication assay using immortalized cells and a laboratory strain of RSV (Long). This assay evaluates the ability of a compound to inhibit viral replication.
# Assay plates are prepared by seeding 2,500 HEp-2 cells (ATCC) per well of a 384-well black clear-bottom plate (Greiner Bio-One) in 20 μL of assay media (defined as DMEM supplemented with 2% heat-inactivated fetal bovine serum and 1% Penicillin/Streptomycin). Assay plates are incubated overnight at 37° C. in an incubator containing 5% CO2. The following day, a 10-point serial dilution of test compound is prepared in DMSO. Compounds are subsequently diluted with assay media and 20 μL of diluted compound (containing 1.5% DMSO) is transferred to an assay plate for evaluation of antiviral activity.
# For the CPE assay, cells are infected at a Multiplicity of Infection (MOI) of 0.015 using 20 μL of RSV Long (ATCC) diluted in assay media. The DMSO concentration is constant throughout the assay plate, including the negative and positive controls. The assay plate is incubated for 3 days at 37° C. in an incubator containing 5% CO2. Cell viability is evaluated with the addition of 10 μL of CellTiter-Glo (ProMega). Luminescence is measured using an EnVision plate reader (Perkin Elmer). EC50 values are calculated using the raw data from the CPE assays.
row,EC50 [nM],Structure (SMILES)
1,12,"O=C1CC(c2c(Cn3c(=O)n(C4CC4)c4ccncc43)ncc3ccccc23)CN1 (centres unmarked) [Example 112c, 1-cyclopropyl-3-((4-(5-oxopyrrolidin-3-yl)isoquinolin-3-yl)methyl)-1H-imidazo[4,5-c]pyridin-2(3H)-one]"

# Same assay, conditions: human respiratory syncytial virus, HEp-2, 72 h, HEp-2 cells infected with RSV Long at MOI 0.015; 3 days at 37° C.; cell viability by CellTiter-Glo luminescence; read-out: EC50 (nm)
row,Structure (SMILES),EC50 [nM]
1,N#Cc1ccc(-c2c(CN3c4ccccc4[C@]4(C[C@@H](O)C4)C3=O)ncc3ccccc23)cn1 [Example 83],9
2,"N[C@H]1CCN(c2ccc3c(CCCCO)c(Cn4c(=O)n(C5CC5)c5ccncc54)ncc3c2)C1 [Example 33, (S)-3-((7-(3-aminopyrrolidin-1-yl)-4-(4-hydroxybutyl)isoquinolin-3-yl)methyl)-1-cyclopropyl-1H-imidazo[4,5-c]pyridin-2(3H)-one]",1300
3,NC1(C(=O)N2CCC3(CC2)C(=O)N(Cc2ncc4ccccc4c2-c2ccc(OC(F)(F)F)cc2)c2cnccc23)CC1 [Example 2036],23
4,NC1(C(=O)N2CCC3(CC2)C(=O)N(Cc2ncc4ccccc4c2-c2cccnc2)c2cnccc23)CC1 [Example 137],5.4
5,NC(=O)c1ccc(-c2c(CN3C(=O)C4(CCN(C(=O)[C@H]5CCCN5)CC4)c4ccncc43)ncc3ccccc23)cn1 [Example 2013],6.6
6,"CNC1(C(=O)N2CCC3(CC2)C(=O)N(Cc2ncc4ccccc4c2-c2ccc(C#N)nc2)c2cnccc23)CC1 [Example 67, 5-(3-((1-(1-(Methylamino)cyclopropanecarbonyl)-2′-oxospiro[piperidine-4,3′-pyrrolo[2,3-c]pyridin]-1′(2′H)-yl)methyl)isoquinolin-4-yl)picolinonitrile]",8.2
7,"COC(=O)N1CC2(C1)C(=O)N(Cc1ncc3ccccc3c1-c1ccc(NS(C)(=O)=O)cc1)c1ccccc12 [Example 105, methyl 1′-((4-(4-(methylsulfonamido)phenyl)isoquinolin-3-yl)methyl)-2′-oxospiro[azetidine-3,3′-indoline]-1-carboxylate]",0.85
8,"O=c1n(Cc2ncc3ccccc3c2CCCCO)c2cnccc2n1C1CN(S(=O)(=O)C2CC2)C1 [Example 34, 1-(1-(cyclopropylsulfonyl)azetidin-3-yl)-3-((4-(4-hydroxybutyl)isoquinolin-3-yl)methyl)-1H-imidazo[4,5-c]pyridin-2(3H)-one]",33
9,"O=c1n(Cc2ncc3ccccc3c2COCC(F)(F)F)c2cnccc2n1C1CC1 [Example 127, 1-Cyclopropyl-3-((4-((2,2,2-trifluoroethoxy)methyl)isoquinolin-3-yl)methyl)-1H-imidazo[4,5-c]pyridin-2(3H)-one]",690
10,CC(C)(C)NC(=O)N1CC2(C1)C(=O)N(Cc1ncc3ccccc3c1-c1ccc(C#N)nc1)c1ccccc12 [Example 81],1.4
11,NCc1ccc2c(CCCCO)c(Cn3c(=O)n(C4CC4)c4ccccc43)ncc2c1 [Example 27],17
12,CS(=O)(=O)N1CCC2(CC1)C(=O)N(Cc1ncc3ccccc3c1-c1ccc(C3(N)COC3)nc1)c1cnccc12 [Example 2038],11
13,"NCc1ccc2c(CCCCO)c(Cn3c(=O)n(C4CC4)c4ccncc43)ncc2c1 [Example 26, 3-((7-(Aminomethyl)-4-(4-hydroxybutyl)isoquinolin-3-yl)methyl)-1-cyclopropyl-1H-imidazo[4,5-c]pyridin-2(3H)-one]",5.9
14,"O=C1N(Cc2ncc3ccccc3c2CCCCO)c2ccccc2C12CNC2 [Example 40, 1′-((4-(4-Hydroxybutyl)isoquinolin-3-yl)methyl)spiro[azetidine-3,3′-indolin]-2′-one]",110

# Second part, the molecule after the results:
row,EC50 [nM],Structure (SMILES)
1,6.4,"COC(=O)N1CCC2(CC1)C(=O)N(Cc1ncc3ccccc3c1CCCCO)c1cnccc12 [Example 21b, Methyl 1′-((4-(4-hydroxybutyl)isoquinolin-3-yl)methyl)-2′-oxo-1′,2′-dihydrospiro[piperidine-4,3′-pyrrolo[2,3-c]pyridine]-1-carboxylate]"
2,15,"CNC1(C(=O)N2CC3(C2)C(=O)N(Cc2ncc4ccccc4c2-c2ccc(S(N)(=O)=O)nc2)c2ccccc23)CC1 [Example 123b, 5-(3-((1-(1-(methylamino)cyclopropanecarbonyl)-2′-oxospiro[azetidine-3,3′-indolin]-1′-yl)methyl)isoquinolin-4-yl)pyridine-2-sulfonamide]"
3,10,"COC(=O)N1CCC2(CC1)C(=O)N(Cc1ncc3ccccc3c1-c1ccc(C#N)cc1)c1cnccc12 [Example 12b, Methyl 1′-((4-(4-cyanophenyl)isoquinolin-3-yl)methyl)-2′-oxo-1′,2′-dihydrospiro[piperidine-4,3′-pyrrolo[2,3-c]pyridine]-1-carboxylate]"
4,> 1,"CC(C)(C)c1ccc(-c2c(Cn3c(=O)n(C4CC4)c4ccncc43)ncc3ccccc23)cc1 [Example 51d, 3-((4-(4-(tert-butyl)phenyl)isoquinolin-3-yl)methyl)-1-cyclopropyl-1H-imidazo[4,5-c]pyridin-2(3H)-one]"
5,0.55,"COC(=O)N1CC2(C1)C(=O)N(Cc1ncc3ccccc3c1-c1ccc(NS(C)(=O)=O)nc1)c1ccccc12 [Example 134b, Methyl 1′-((4-(6-(methylsulfonamido)pyridin-3-yl)isoquinolin-3-yl)methyl)-2′-oxospiro[azetidine-3,3′-indoline]-1-carboxylate]"
6,7.8,"CS(=O)(=O)N1CCC2(CC1)C(=O)N(Cc1ncc3ccccc3c1-c1cnco1)c1cnccc12 [Example 159b, 1-(methylsulfonyl)-1′-((4-(oxazol-5-yl)isoquinolin-3-yl)methyl)spiro[piperidine-4,3′-pyrrolo[2,3-c]pyridin]-2′(1′H)-one]"
7,0.86,"CS(=O)(=O)N1CCC2(CC1)C(=O)N(Cc1ncc3ccccc3c1-c1ccc(F)nc1)c1cnccc12 [Example 110b, 1′-((4-(6-fluoropyridin-3-yl)isoquinolin-3-yl)methyl)-1-(methylsulfonyl)spiro[piperidine-4,3′-pyrrolo[2,3-c]pyridin]-2′(1′H)-one]"
8,1.3,"CS(=O)(=O)N1CCC2(CC1)C(=O)N(Cc1ncc3cc(Cl)ccc3c1-c1cccnc1)c1cnccc12 [Example 160c, 1′-((7-chloro-4-(pyridin-3-yl)isoquinolin-3-yl)methyl)-1-(methylsulfonyl)spiro[piperidine-4,3′-pyrrolo[2,3-c]pyridin]-2′(1′H)-one]"
9,6.8,"COC(=O)N1CC2(C1)C(=O)N(Cc1ncc3ccccc3c1CCCCO)c1ccccc12 [Example 28b, Methyl 1′-((4-(4-hydroxybutyl)isoquinolin-3-yl)methyl)-2′-oxospiro[azetidine-3,3′-indoline]-1-carboxylate]"
10,3.7,"NC1(C(=O)N2CCC3(CC2)C(=O)N(Cc2ncc4ccccc4c2-c2cncc(F)c2)c2cnccc23)CC1 [Example 106c, 1-(1-aminocyclopropanecarbonyl)-1′-((4-(5-fluoropyridin-3-yl)isoquinolin-3-yl)methyl)spiro[piperidine-4,3′-pyrrolo[2,3-c]pyridin]-2′(1′H)-one]"

# Same assay, conditions: human respiratory syncytial virus, HEp-2, 72 h, read-out: EC50 (nm)
row,Structure (SMILES),EC50 [nM]
1,"COC(=O)N1CCC2(CC1)C(=O)N(Cc1ncc3ccccc3c1-c1ccc(C#N)nc1)c1cnccc12 [Example 13, Methyl 1′-((4-(6-cyanopyridin-3-yl)isoquinolin-3-yl)methyl)-2′-oxo-1′,2′-dihydrospiro[piperidine-4,3′-pyrrolo[2,3-c]pyridine]-1-carboxylate]",3
